Results as given in the supplement of paper PMC10307832.

How the values were obtained:
Test in all cases: relative viability (nuclei count vs DMSO), 5 days (fraction); higher = more cells survive
[1] = compound: COc1cc(Nc2c(C#N)cnc3cc(OCCCN4CCN(C)CC4)c(OC)cc23)c(Cl)cc1Cl [Bosutinib] + C[C@]1(O)C[C@@H](c2nc(-c3ccc4ccc(-c5ccccc5)nc4c3)c3c(N)nccn32)C1 [Linsitinib] (partner 1 µM)
In short: (§1)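 Dosing by pin tool came one day after lung cancer cell lines were seeded in 1536-well plates, using either one drug or a fixed anchor-drug dose plus five library-drug doses (not always all listed) in √10 steps. After 5 days, nuclei were counted on 4× images. Relative viability is treated-well nuclei count divided by vehicle-well nuclei count, and values are medians of duplicate plates.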

[2] = compound: COc1cc(Nc2c(C#N)cnc3cc(OCCCN4CCN(C)CC4)c(OC)cc23)c(Cl)cc1Cl [Bosutinib] + C[C@@H](Oc1cc(-c2cnn(C3CCNCC3)c2)cnc1N)c1c(Cl)ccc(F)c1Cl [Crizotinib] (partner 1 µM)
In short: as §1

[3] = compound: COc1cc(Nc2c(C#N)cnc3cc(OCCCN4CCN(C)CC4)c(OC)cc23)c(Cl)cc1Cl [Bosutinib] + CS(=O)(=O)N1CCN(Cc2cc3nc(-c4cccc5[nH]ncc45)nc(N4CCOCC4)c3s2)CC1 [Pictilisib] (partner 1 µM)
In short: as §1

[4] = compound: COc1cc(Nc2c(C#N)cnc3cc(OCCCN4CCN(C)CC4)c(OC)cc23)c(Cl)cc1Cl [Bosutinib] + Cc1nc(NC(=O)N2CCC[C@H]2C(N)=O)sc1-c1ccnc(C(C)(C)C(F)(F)F)c1 [Alpelisib] (partner 2 µM)
In short: as §1

[5] = compound: COc1cc(Nc2c(C#N)cnc3cc(OCCCN4CCN(C)CC4)c(OC)cc23)c(Cl)cc1Cl [Bosutinib] + CC(C)C[C@H](NC(=O)[C@H](Cc1ccccc1)NC(=O)c1cnccn1)B(O)O [Bortezomib] (partner 0.002 µM)
In short: as §1

Cell Line	relative viability ([1]; first compound 0.01 µM)	relative viability ([1]; first compound 0.03162 µM)	relative viability ([1]; first compound 0.1 µM)	relative viability ([1]; first compound 1 µM)	relative viability ([2]; first compound 0.01 µM)	relative viability ([2]; first compound 0.03162 µM)	relative viability ([2]; first compound 0.1 µM)	relative viability ([2]; first compound 1 µM)	relative viability ([3]; first compound 0.01 µM)	relative viability ([3]; first compound 0.03162 µM)	relative viability ([3]; first compound 0.1 µM)	relative viability ([3]; first compound 1 µM)	relative viability ([4]; first compound 0.01 µM)	relative viability ([4]; first compound 0.03162 µM)	relative viability ([4]; first compound 0.1 µM)	relative viability ([4]; first compound 1 µM)	relative viability ([5]; first compound 0.01 µM)	relative viability ([5]; first compound 0.03162 µM)	relative viability ([5]; first compound 0.1 µM)	relative viability ([5]; first compound 1 µM)
201T	1.08	0.987	1.02	0.966	0.982	1.06	1.1	0.945	0.685	0.653	0.66	0.615	1	1.02	1.01	0.909	1.16	1.05	1.14	1.05
A549	0.676	0.624	0.55	0.499	0.761	0.66	0.724	1.01	0.442	0.447	0.494	0.513	0.731	0.78	0.734	0.621	–	–	–	–
A-427	1.1	1.13	1.21	1.02	0.867	0.954	0.877	0.61	0.724	0.801	0.874	0.736	1.03	1.11	1.03	0.978	0.958	1.04	1.08	0.958
ABC-1	0.858	0.931	0.647	0.359	1.01	1.04	1.21	0.708	0.836	0.85	0.841	0.596	0.938	0.944	0.897	0.731	0.331	0.338	0.312	0.33
BEN	0.981	0.798	1.01	0.604	0.836	0.857	0.795	0.519	0.548	0.706	0.664	0.429	0.986	1.04	0.888	0.669	0.726	0.986	0.923	0.765
CAL-12T	0.739	0.932	0.891	0.71	0.543	0.7	0.638	0.362	0.31	0.496	0.46	0.409	1.09	1.09	1.2	0.787	0.888	1.15	1.18	1.01
COR-L23	1	0.96	0.895	0.887	0.663	0.589	0.571	0.749	0.893	0.826	0.813	0.81	0.803	0.799	0.747	0.836	1.07	1.03	1.01	1.01
COR-L 105	0.948	1.21	0.857	0.59	0.938	0.798	0.617	0.507	0.423	0.442	0.387	0.393	0.869	1.27	0.871	0.565	0.778	0.9	0.705	0.446
ChaGo-K-1	–	–	–	–	1.21	1.14	1.09	1.17	0.544	1.05	1.06	1.14	–	–	–	–	0.922	1.12	1.12	1.37
EKVX	0.974	0.982	1	0.539	0.895	0.753	1.01	0.481	0.427	0.469	0.41	0.309	0.894	0.89	0.847	0.476	1.18	1.05	0.982	0.713
EMC-BAC-2	0.852	0.791	0.832	0.733	0.763	0.756	0.789	0.759	0.576	0.507	0.52	0.506	0.757	0.731	0.723	0.657	1.03	0.943	1.07	1.06
EPLC-272H	1.18	1.25	1.31	1.14	0.904	1.17	1.05	0.818	0.375	0.293	0.36	0.426	0.937	1.15	1.03	0.854	0.76	0.817	0.911	0.9
H3255	0.94	0.974	0.994	0.45	0.901	0.855	0.853	0.354	0.488	0.49	0.44	0.235	0.686	0.743	0.669	0.198	0.659	0.774	0.85	0.493
HARA	1.01	0.913	0.892	0.629	1.14	0.955	0.995	0.642	0.442	0.453	0.45	0.352	0.842	0.817	0.874	0.502	1.15	1.13	1.1	1.18
HCC-15	0.905	0.837	0.954	0.803	0.809	0.846	0.844	0.771	0.799	0.829	0.725	0.773	0.844	0.9	0.924	0.85	1.05	1.06	1.08	0.915
HCC-44	0.696	0.619	0.674	0.559	0.809	0.782	0.764	0.755	0.723	0.548	0.587	0.632	0.749	0.877	0.761	0.772	0.873	0.891	0.867	0.567
